According to the supplement of paper PMC10933113:
Structures can show the parent of a compound that is named as a salt. ± gives the uncertainty stated by the source.

Assays:
THP-1 = assay: efficacy of IL-8 induction relative to DMSO (% activity); higher = stronger induction; details: exposure time: 18 h
[1] = system: cysteine peptide Ac-RFAACAA-COOH; assay: efficacy of cysteine peptide change (negative = depletion) (% activity); higher = less depletion; details: incubation time: 24 h
[2] = system: lysine peptide Ac-RFAAKAA-COOH; assay: efficacy of lysine peptide change (negative = depletion) (% activity); higher = less depletion; details: incubation time: 24 h
[3] = system: KeratinoSens (HaCaT ARE-luciferase) cells; assay: efficacy of ARE luciferase induction relative to DMSO (% activity over DMSO); higher = stronger induction; details: exposure time: 24 h
[4] = system: KeratinoSens (HaCaT ARE-luciferase) cells; assay: cytotoxicity AC50 (CellTiter-Fluor viability); higher = less cytotoxic; details: exposure time: 24 h

COP(=S)(OC)Oc1ccc(SC)c(C)c1 [Fenthion]
efficacy of IL-8 induction (THP-1): -2.61 ± 4.5 | efficacy of cysteine peptide change [1]: 0.74 ± 16 | efficacy of lysine peptide change [2]: 2.04 ± 28 | efficacy of ARE luciferase induction [3]: 17.4 ± 5.5

Clc1ccc(C(Cn2ccnc2)OCc2ccc(Sc3ccccc3)cc2)c(Cl)c1 (centres undefined) [Fenticonazole nitrate]
efficacy of IL-8 induction (THP-1): 3.64 ± 6.3 | efficacy of cysteine peptide change [1]: -8.26 ± 7.2 | efficacy of lysine peptide change [2]: 1.96 ± 25 | efficacy of ARE luciferase induction [3]: 51.9 ± 25

O=c1cc(-c2ccccc2)oc2ccccc12 [Flavone]
efficacy of IL-8 induction (THP-1): 3.56 ± 6.2 | efficacy of cysteine peptide change [1]: -1.8 ± 3.1 | efficacy of lysine peptide change [2]: 50.2 ± 3.4 | efficacy of ARE luciferase induction [3]: 27 ± 10

Cc1c(C)n(Cc2ccccc2)c2ccc(C(=O)OCCN(C)C)cc12 [Indocate]
cytotoxicity AC50 [4]: 28.7 ± 6.6 µM | efficacy of IL-8 induction (THP-1): 17 ± 9.1 | efficacy of cysteine peptide change [1]: 17.7 ± 6 | efficacy of lysine peptide change [2]: 90.6 ± 13 | efficacy of ARE luciferase induction [3]: 22.8 ± 4.9

Clc1ccc(C(Cn2ccnc2)OCc2c(Cl)cccc2Cl)c(Cl)c1 (centres undefined) [Isoconazole]
cytotoxicity AC50 [4]: 13.1 ± 0.89 µM | efficacy of IL-8 induction (THP-1): 8.24 ± 7.5 | efficacy of cysteine peptide change [1]: 1.83 ± 9.7 | efficacy of lysine peptide change [2]: 65.7 ± 12 | efficacy of ARE luciferase induction [3]: 15 ± 17

CCC(C)(CC)c1cc(NC(=O)c2c(OC)cccc2OC)on1 [Isoxaben]
efficacy of IL-8 induction (THP-1): 2.21 ± 15 | efficacy of cysteine peptide change [1]: 21.1 ± 6.2 | efficacy of lysine peptide change [2]: 47.2 ± 16 | efficacy of ARE luciferase induction [3]: 20.2 ± 5.5

CCCCCCCCCCCCN(CCO)CCO [Lauryldiethanolamine]
efficacy of IL-8 induction (THP-1): 30.1 ± 14 | efficacy of cysteine peptide change [1]: -45.7 ± 16 | efficacy of lysine peptide change [2]: 109 ± 17 | efficacy of ARE luciferase induction [3]: -12.7 ± 56

COc1ccc(C(=O)c2ccc(C)cc2)c(O)c1 [Mexenone]
efficacy of IL-8 induction (THP-1): 10.8 ± 9.8 | efficacy of cysteine peptide change [1]: 2.33 ± 4 | efficacy of lysine peptide change [2]: 9.47 ± 3 | efficacy of ARE luciferase induction [3]: 28 ± 31

CO[C@@]12[C@H](COC(N)=O)C3=C(C(=O)C(C)=C(N)C3=O)N1C[C@@H]1N[C@@H]12 [Mitomycin C]
efficacy of IL-8 induction (THP-1): 12.9 ± 11 | efficacy of cysteine peptide change [1]: -37 ± 6.3 | efficacy of lysine peptide change [2]: 0 | efficacy of ARE luciferase induction [3]: 17.2 ± 24

CNC(=S)NN [N-Methylhydrazinecarbothioamide]
cytotoxicity AC50 [4]: 22.5 ± 2.6 µM | efficacy of IL-8 induction (THP-1): 91.8 ± 17 | efficacy of cysteine peptide change [1]: -58.5 ± 10 | efficacy of lysine peptide change [2]: -0.75 ± 9.8 | efficacy of ARE luciferase induction [3]: -12.3 ± 42

CCCCCCCCCCCC(=O)NCCCN(C)C [N-[3-(Dimethylamino)propyl]dodecanamide]
cytotoxicity AC50 [4]: 42.1 ± 9.5 µM | efficacy of IL-8 induction (THP-1): 36.3 ± 13 | efficacy of cysteine peptide change [1]: 18 ± 19 | efficacy of lysine peptide change [2]: 168 ± 11 | efficacy of ARE luciferase induction [3]: 4.32 ± 44

CC(C)NC(=O)c1ccc(C=O)cc1 [N-isopropyl-4-formylbenzamide]
efficacy of IL-8 induction (THP-1): 29.6 ± 51 | efficacy of cysteine peptide change [1]: -2.83 ± 4.9 | efficacy of lysine peptide change [2]: 54.8 ± 7.6 | efficacy of ARE luciferase induction [3]: 32.9 ± 39

CCCCCOc1ccccc1/C(=C\SC)n1ccnc1 [Neticonazole]
efficacy of IL-8 induction (THP-1): 23.6 ± 1.8 | efficacy of cysteine peptide change [1]: -4.4 ± 7.6 | efficacy of lysine peptide change [2]: 64.1 ± 7.7 | efficacy of ARE luciferase induction [3]: 21.4 ± 9.5

O=C(O)c1cccnc1Nc1cccc(C(F)(F)F)c1 [Niflumic acid]
efficacy of IL-8 induction (THP-1): 0 | efficacy of cysteine peptide change [1]: 40.2 ± 6.4 | efficacy of lysine peptide change [2]: 93.9 ± 56 | efficacy of ARE luciferase induction [3]: 59.7 ± 37

NC(=O)N/N=C/c1ccc([N+](=O)[O-])o1 [Nitrofurazone]
efficacy of IL-8 induction (THP-1): 0 | efficacy of cysteine peptide change [1]: -39.2 ± 4.3 | efficacy of lysine peptide change [2]: -8.37 ± 1.2 | efficacy of ARE luciferase induction [3]: 37 ± 47

CCCCCCCC/C=C\CCCCCCCC(=O)N(C)CC(=O)O [Oleyl sarcosine]
efficacy of IL-8 induction (THP-1): 0 | efficacy of cysteine peptide change [1]: -5.45 ± 4.8 | efficacy of lysine peptide change [2]: 3.95 ± 6.8 | efficacy of ARE luciferase induction [3]: -5.73 ± 8.1

COC(=O)Nc1nc2cc([S+]([O-])c3ccccc3)ccc2[nH]1 (centres undefined) [Oxfendazole]
efficacy of IL-8 induction (THP-1): 2.33 ± 4 | efficacy of cysteine peptide change [1]: 13.2 ± 15 | efficacy of lysine peptide change [2]: -8.69 ± 25 | efficacy of ARE luciferase induction [3]: 0

CC1=C(C(=O)Nc2ccccc2)S(=O)(=O)CCO1 [Oxycarboxin]
cytotoxicity AC50 [4]: 32.9 ± 2.2 µM | efficacy of IL-8 induction (THP-1): 0 | efficacy of ARE luciferase induction [3]: 52.3 ± 47

CC(=O)Oc1ccc(C2(c3ccc(OC(C)=O)cc3)C(=O)Nc3ccccc32)cc1 [Oxyphenisatin acetate]
efficacy of IL-8 induction (THP-1): 0 | efficacy of cysteine peptide change [1]: 0.29 ± 11 | efficacy of lysine peptide change [2]: 34.2 ± 19 | efficacy of ARE luciferase induction [3]: 49 ± 42

CC(C(=O)O)c1ccc(/C=C2\CCCCC2=O)cc1 (centres undefined) [Pelubiprofen]
efficacy of IL-8 induction (THP-1): 0 | efficacy of cysteine peptide change [1]: -2.83 ± 4.9 | efficacy of lysine peptide change [2]: 56.7 ± 8.3 | efficacy of ARE luciferase induction [3]: -2.46 ± 29

Nc1ccc(/N=N/c2ccccc2)c(N)n1 [Phenazopyridine hydrochloride]
cytotoxicity AC50 [4]: 66.8 ± 15 µM | efficacy of IL-8 induction (THP-1): 51.3 ± 29 | efficacy of cysteine peptide change [1]: -35 ± 6.8 | efficacy of lysine peptide change [2]: 26.2 ± 4.5 | efficacy of ARE luciferase induction [3]: 35.5 ± 17

O=C(Oc1ccccc1)c1ccccc1O [Phenyl salicylate]
efficacy of IL-8 induction (THP-1): 0 | efficacy of cysteine peptide change [1]: 9.93 ± 10 | efficacy of lysine peptide change [2]: 10.7 ± 13 | efficacy of ARE luciferase induction [3]: 8.07 ± 11

CCOP(=S)(OCC)Oc1cnc2ccccc2n1 [Quinalphos]
efficacy of IL-8 induction (THP-1): 7.62 ± 6.8 | efficacy of cysteine peptide change [1]: 97.5 ± 350 | efficacy of lysine peptide change [2]: 10.6 ± 9.3 | efficacy of ARE luciferase induction [3]: 37.5 ± 24

Fc1ccc(Oc2ccnc3cc(Cl)cc(Cl)c23)cc1 [Quinoxyfen]
cytotoxicity AC50 [4]: 57 ± 12 µM | efficacy of IL-8 induction (THP-1): 25.9 ± 3.1 | efficacy of cysteine peptide change [1]: 3.98 ± 6.9 | efficacy of lysine peptide change [2]: -7.82 ± 12 | efficacy of ARE luciferase induction [3]: -5.76 ± 35

C[n+]1cc2c3c(ccc2c2ccc4cc5c(cc4c21)OCO5)OCO3 [Sanguinarine]
cytotoxicity AC50 [4]: 7.37 ± 0.5 µM | efficacy of IL-8 induction (THP-1): 59.1 ± 21 | efficacy of cysteine peptide change [1]: 58.9 ± 18 | efficacy of lysine peptide change [2]: 114 ± 27 | efficacy of ARE luciferase induction [3]: -34.7 ± 1.6

CCNc1nc(NC(C)(C)C)nc(SC)n1 [Terbutryn]
efficacy of IL-8 induction (THP-1): 4.42 ± 7.7 | efficacy of cysteine peptide change [1]: 21.4 ± 20 | efficacy of lysine peptide change [2]: 139 ± 22 | efficacy of ARE luciferase induction [3]: 8.44 ± 7.8

CCCCCCCCCCCCCC[N+](C)(C)C [Tetradonium bromide]
cytotoxicity AC50 [4]: 14.2 ± 1.6 µM | efficacy of IL-8 induction (THP-1): 43 ± 20 | efficacy of cysteine peptide change [1]: 61.4 ± 19 | efficacy of lysine peptide change [2]: 103 ± 44 | efficacy of ARE luciferase induction [3]: -21.2 ± 4.7

c1ccc2[nH]c(-c3cscn3)nc2c1 [Thiabendazole]
cytotoxicity AC50 [4]: 14.8 ± 1.9 µM | efficacy of IL-8 induction (THP-1): 11.1 ± 3.7 | efficacy of cysteine peptide change [1]: 2.83 ± 4.9 | efficacy of lysine peptide change [2]: 0.27 ± 31 | efficacy of ARE luciferase induction [3]: 33 ± 4.4

CCOC(=O)NC(=S)Nc1ccccc1NC(=S)NC(=O)OCC [Thiophanate]
efficacy of IL-8 induction (THP-1): 3.6 ± 6.2 | efficacy of cysteine peptide change [1]: -5.09 ± 4.7 | efficacy of lysine peptide change [2]: 34.5 ± 10 | efficacy of ARE luciferase induction [3]: 98.8 ± 100

Cc1cccc(N(C)C(=S)Oc2ccc3c(c2)C2CCC3C2)c1 (centres undefined) [Tolciclate]
efficacy of IL-8 induction (THP-1): 22.4 ± 2.8 | efficacy of cysteine peptide change [1]: -30.8 ± 9.8 | efficacy of lysine peptide change [2]: -7.88 ± 7 | efficacy of ARE luciferase induction [3]: 46.5 ± 33

Cc1ccc(N=C=O)cc1N=C=O [Toluene-2,4-diisocyanate]
efficacy of IL-8 induction (THP-1): 33 ± 3.5 | efficacy of cysteine peptide change [1]: -19.2 ± 5 | efficacy of lysine peptide change [2]: -3.03 ± 21 | efficacy of ARE luciferase induction [3]: 82.9 ± 38

[OH-].c1cc[c]([Sn+]([c]2ccccc2)[c]2ccccc2)cc1 [Triphenyltin hydroxide]
cytotoxicity AC50 [4]: 2.82 µM | efficacy of IL-8 induction (THP-1): 16.4 ± 2.2 | efficacy of cysteine peptide change [1]: -39.1 ± 94 | efficacy of lysine peptide change [2]: 14.6 ± 2.5 | efficacy of ARE luciferase induction [3]: 429 ± 120

NCCc1ccc(O)cc1 [Tyramine]
efficacy of IL-8 induction (THP-1): 0 | efficacy of cysteine peptide change [1]: 10.7 ± 18 | efficacy of lysine peptide change [2]: -1.41 ± 14 | efficacy of ARE luciferase induction [3]: 17 ± 9

CCC(C)(NC(=O)c1cc(Cl)c(C)c(Cl)c1)C(=O)CCl (centres undefined) [Zoxamide]
cytotoxicity AC50 [4]: 41.4 ± 2.8 µM | efficacy of IL-8 induction (THP-1): 84.9 ± 14 | efficacy of cysteine peptide change [1]: -8.25 ± 7.4 | efficacy of lysine peptide change [2]: 19.4 ± 7.3 | efficacy of ARE luciferase induction [3]: 60.2 ± 4.2

CCCCCCCCN [n-Octylamine]
efficacy of IL-8 induction (THP-1): 0 | efficacy of cysteine peptide change [1]: 0 | efficacy of lysine peptide change [2]: -6.29 ± 6.4 | efficacy of ARE luciferase induction [3]: 47.1 ± 74

CC(C)(C)OC(=O)c1ccc(O)cc1 [tert-Butyl 4-hydroxybenzoate]
efficacy of IL-8 induction (THP-1): 0 | efficacy of cysteine peptide change [1]: -19.7 ± 9.4 | efficacy of lysine peptide change [2]: 58.9 ± 23 | efficacy of ARE luciferase induction [3]: 28.1 ± 9.8
